From US4900672A, “Method for preservation of nitrile hydration activity” (Nitto Kagaku Kogyo Kabushiki Kaisha, priority 1986, dated 1990)
Read-outs that look alike come from different tables or passages of the source. Values belong to the compound of their own block, whether it stands above or below them.

Target: T1, nitrile hydratase (Pseudomonas chlororaphis, UniProt P27763+P27764)
T1 sequence (P27764 1-200): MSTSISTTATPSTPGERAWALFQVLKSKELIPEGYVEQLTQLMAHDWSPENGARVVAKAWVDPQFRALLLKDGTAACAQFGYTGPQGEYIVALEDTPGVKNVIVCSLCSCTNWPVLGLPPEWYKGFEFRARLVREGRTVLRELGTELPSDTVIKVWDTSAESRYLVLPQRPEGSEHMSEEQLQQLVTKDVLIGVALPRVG
T1 sequence (P27763 1-220): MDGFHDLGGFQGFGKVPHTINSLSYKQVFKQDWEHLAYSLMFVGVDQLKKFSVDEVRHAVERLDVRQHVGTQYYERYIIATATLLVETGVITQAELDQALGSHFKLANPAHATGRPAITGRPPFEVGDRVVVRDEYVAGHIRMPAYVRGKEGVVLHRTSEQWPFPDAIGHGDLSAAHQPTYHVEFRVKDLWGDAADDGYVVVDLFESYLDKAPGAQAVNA
Experiment: Preservation of nitrile hydration activity of washed cell suspension left standing ice-cooled with stabilizer
Assay type: cell-based, Pseudomonas chlororaphis B23 (FERM BP-187)

[1] = 120 h; Table 3; 10 mg organic acid in 5 ml cell suspension, pH 6.0, left standing 5 days ice-cooled; no stabilizer: 43; read-out: % Residual Activity
[2] = 120 h; Table 2; 10 mg amide in 5 ml cell suspension, pH 6.5, left standing 5 days ice-cooled; no stabilizer: 42; read-out: % Residual Activity
[3] = 120 h, pH 6, read-out: % Residual Activity
[4] = 120 h, pH 6.5, read-out: % Residual Activity
[5] = 120 h; Table 1; 10 mg nitrile in 5 ml cell suspension, pH 6.5, left standing 5 days ice-cooled; no stabilizer: 42; read-out: % Residual Activity
[6] = 96 h, pH 7, read-out: % Residual Activity
[7] = 96 h; Table 4; pH 5.0, 25 mg stabilizer in 5 ml, 4 days ice-cooled; no stabilizer: 2; read-out: % Residual Activity
[8] = 96 h; Table 4; pH 6.0, 25 mg stabilizer in 5 ml, 4 days ice-cooled; no stabilizer: 41; read-out: % Residual Activity
[9] = 96 h; Table 4; pH 6.5, 25 mg stabilizer in 5 ml, 4 days ice-cooled; no stabilizer: 52; read-out: % Residual Activity
[10] = 96 h; Table 4; pH 8.0, 25 mg stabilizer in 5 ml, 4 days ice-cooled; no stabilizer: 26; read-out: % Residual Activity
[11] = Table 5; stabilizer concentration 0.01 g/l, pH 6.0, 3 days ice-cooled; no stabilizer (pH 6.5): 52; read-out: % Residual Activity
[12] = 96 h, pH 5.5, read-out: % Residual Activity
[13] = pH 6, read-out: % Residual Activity

activity at 10 mg [1]: 87%
Structure (SMILES): O=C(O)C(O)CO (racemic) [DL-Glyceric acid]

activity at 10 mg [2]: 67%
Structure (SMILES): CC(N)=O [Acetamide]

Structure (SMILES): CC(=O)O [Acetic acid]
activity at 10 mg [3]: 77%

Structure (SMILES): CC#N [Acetonitrile]
activity at 10 mg [4]: 71%

Structure (SMILES): C=CC(N)=O [Acrylamide]
activity at 10 mg [2]: 73%

Structure (SMILES): C=CC(=O)O [Acrylic acid]
activity at 10 mg [1]: 70%

Structure (SMILES): C=CC#N [Acrylonitrile]
activity at 10 mg [5]: 71%

Structure (SMILES): N#CCCCCC#N [Adiponitrile]
activity at 10 mg [5]: 84%

activity at 10 mg [2]: 65%
Structure (SMILES): NC(=O)c1ccccc1 [Benzamide]

Structure (SMILES): O=C(O)c1ccccc1 [Benzoic acid]
activity at 10 mg [1]: 68%

Structure (SMILES): N#Cc1ccccc1 [Benzonitrile]
activity at 10 mg [5]: 70%

Structure (SMILES): CCCCCC(=O)O [Caproic acid]
activity at 10 mg [1]: 83%

Structure (SMILES): NC(=O)CCl [Chloroacetamide]
activity at 10 mg [4]: 71%

Structure (SMILES): N#CCCl [Chloroacetonitrile]
activity at 10 mg [5]: 77%

Structure (SMILES): O=C(O)CC(O)(CC(=O)O)C(=O)O [Citric acid]
activity at 10 mg [1]: 77%

Structure (SMILES): N#CCC(N)=O [Cyanoacetamide]
activity at 10 mg [5]: 75%

activity at 10 mg [5]: 69%
Structure (SMILES): N#CCC(=O)O [Cyanoacetic acid]

Structure (SMILES): O=CO [Formic Acid]
activity at 10 mg [3]: 83%

Structure (SMILES): O=C(O)/C=C/C(=O)O [Fumaric acid]
activity at 10 mg [3]: 82%

activity at 10 mg [2]: 63%
Structure (SMILES): NCC(N)=O [Glycine amide]

Structure (SMILES): N#CCN [Glycine nitrile]
activity at 10 mg [5]: 68%

activity at 10 mg [1]: 77%
Structure (SMILES): O=C(O)CO [Glycolic acid]

activity at 10 mg [1]: 88%
Structure (SMILES): O=CC(=O)O [Glyoxylic acid]

Structure (SMILES): CC(C)C(N)=O [Isobutyramide]
activity at 25 mg [6]: 78%
activity at 25 mg [7]: 3%
activity at 25 mg (96 h; Table 4; pH 5.5, 25 mg stabilizer in 5 ml, 4 days ice-cooled; no stabilizer: 32; read-out: % Residual Activity): 100%
activity at 25 mg [8]: 100%
activity at 25 mg [9]: 87%
activity at 25 mg [10]: 52%
activity at 10 mg [4]: 99%
remaining activity at 10 µg/mL [11]: 82%
remaining activity at 100 µg/mL (Table 5; stabilizer concentration 0.1 g/l, pH 6.0, 3 days ice-cooled; read-out: % Residual Activity): 88%
remaining activity at 1000 µg/mL (Table 5; stabilizer concentration 1.0 g/l, pH 6.0, 3 days ice-cooled; read-out: % Residual Activity): 100%
remaining activity at 5000 µg/mL (Table 5; stabilizer concentration 5.0 g/l, pH 6.0, 3 days ice-cooled; read-out: % Residual Activity): 100%
remaining activity at 20000 µg/mL (Table 5; stabilizer concentration 20 g/l, pH 6.0, 3 days ice-cooled; read-out: % Residual Activity): 100%
remaining activity at 50000 µg/mL (Table 5; stabilizer concentration 50 g/l, pH 6.0, 3 days ice-cooled; read-out: % Residual Activity): 90%

Structure (SMILES): CC(C)C(=O)O [Isobutyric acid]
activity at 25 mg (96 h, pH 5, read-out: % Residual Activity): 1%
activity at 25 mg [12]: 100%
activity at 25 mg (96 h, pH 6, read-out: % Residual Activity): 100%
activity at 25 mg (96 h, pH 6.5, read-out: % Residual Activity): 88%
activity at 25 mg [6]: 78%
activity at 25 mg (96 h, pH 8, read-out: % Residual Activity): 49%
activity at 10 mg [3]: 97%
remaining activity at 100 µg/mL [13]: 83%
remaining activity at 1000 µg/mL [13]: 100%
remaining activity at 5000 µg/mL [13]: 97%
remaining activity at 20000 µg/mL [13]: 95%
remaining activity at 50000 µg/mL [13]: 87%
remaining activity at 10 µg/mL (read-out: % Residual Activity): 80%

Structure (SMILES): CC(C)C#N [Isobutyronitrile]
activity at 25 mg [12]: 98%
activity at 25 mg [7]: 5%
activity at 25 mg [8]: 97%
activity at 25 mg [9]: 85%
activity at 25 mg (96 h; Table 4; pH 7.0, 25 mg stabilizer in 5 ml, 4 days ice-cooled; no stabilizer: 43; read-out: % Residual Activity): 80%
activity at 25 mg [10]: 53%
activity at 10 mg [5]: 95%
remaining activity at 10 µg/mL [11]: 78%
remaining activity at 100 µg/mL [13]: 85%
remaining activity at 1000 µg/mL [13]: 98%
remaining activity at 5000 µg/mL [13]: 100%
remaining activity at 20000 µg/mL [13]: 91%

Structure (SMILES): CC(O)C(N)=O (stereo not shown) [Lactamide]
activity at 10 mg [2]: 70%

Structure (SMILES): CC(O)C#N (stereo not shown) [Lactonitrile]
activity at 10 mg [5]: 73%

activity at 10 mg [1]: 81%
Structure (SMILES): O=C(O)CC(O)C(=O)O (stereo not shown) [Malic acid]

activity at 10 mg [2]: 66%
Structure (SMILES): NC(=O)CC(N)=O [Malondiamide]

activity at 10 mg [1]: 63%
Structure (SMILES): O=C(O)CC(=O)O [Malonic acid]

Structure (SMILES): N#CCC#N [Malononitrile]
activity at 10 mg (120 h, pH 6.5; read-out: % Residual Activity): 69%

Structure (SMILES): C=C(C)C(N)=O [Methacrylamide]
activity at 10 mg [2]: 79%

Structure (SMILES): C=C(C)C(=O)O [Methacrylic acid]
activity at 10 mg [1]: 81%

Structure (SMILES): C=C(C)C#N [Methacrylonitrile]
activity at 10 mg [5]: 80%

Structure (SMILES): O=C(O)CCl [Monochloroacetic acid]
activity at 10 mg [1]: 70%

Structure (SMILES): NC(=O)c1cccnc1 [Nicotinamide]
activity at 10 mg [2]: 59%

Structure (SMILES): N#Cc1cccnc1 [Nicotinonitrile]
activity at 10 mg [5]: 73%

activity at 10 mg [1]: 83%
Structure (SMILES): O=C(O)CC(=O)C(=O)O [Oxalacetic acid]

Structure (SMILES): CCC(N)=O [Propionamide]
activity at 10 mg [2]: 93%

Structure (SMILES): CCC(=O)O [Propionic acid]
activity at 10 mg [3]: 93%

Structure (SMILES): CCC#N [Propionitrile]
activity at 10 mg [5]: 90%

activity at 10 mg [2]: 68%
Structure (SMILES): NC(=O)CCC(N)=O [Succindiamide]

Structure (SMILES): O=C(O)CCC(=O)O [Succinic acid]
activity at 10 mg [3]: 80%

Structure (SMILES): N#CCCC#N [Succiononitrile]
activity at 10 mg [5]: 81%

Structure (SMILES): CCCCC(=O)O [Valeric acid]
activity at 10 mg [3]: 84%

activity at 10 mg [2]: 89%
Structure (SMILES): CCCC(N)=O [n-Butyramide]

Structure (SMILES): CCCC#N [n-Butyronitrile]
activity at 10 mg [5]: 88%

activity at 10 mg [2]: 88%
Structure (SMILES): CCCCCC(N)=O [n-Capronamide]

Structure (SMILES): CCCCCC#N [n-Capronitrile]
activity at 10 mg [5]: 89%

activity at 10 mg [2]: 94%
Structure (SMILES): CCCCC(N)=O [n-Valeramide]

Structure (SMILES): CCCCC#N [n-Valeronitrile]
activity at 10 mg [5]: 93%

activity at 10 mg [2]: 68%
Structure (SMILES): NCCC(N)=O [β-Aminopropionamide]

Structure (SMILES): NCCC(=O)O [β-Aminopropionic acid]
activity at 10 mg [3]: 71%

Structure (SMILES): N#CCCN [β-Aminopropionitrile]
activity at 10 mg [5]: 70%

activity at 10 mg [2]: 71%
Structure (SMILES): NC(=O)CCCl [β-Chloropropionamide]

Structure (SMILES): N#CCCCl [β-Chloropropionitrile]
activity at 10 mg [5]: 80%

Structure (SMILES): NC(=O)CCO [β-Hydroxypropionamide]
activity at 10 mg [2]: 74%

Structure (SMILES): N#CCCO [β-Hydroxypropionitrile]
activity at 10 mg [5]: 84%
